9 compounds from PubChem BioAssay (NCI) can be followed below.

Among the test systems are COLO 205 colon; DU-145 prostate; HOP-92 NSCLC; HT29 colon; M14 melanoma; NCI-H460 lung; PC-3 prostate; UACC-62 melanoma; UO-31 renal; RPMI-8226 leukemia.
Holding throughout (experiment): growth of human tumour cells (NCI), 48 h

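Growth conditions: 96-well plates. Treatment: test compound, 48 hours, 5 concentrations. Analysis: linear interpolation between bracketing concentrations; unreached endpoints set to highest concentration. GI50 marks 50% less growth. The concentration for full growth arrest is given as TGI.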

Take `COc1ccc2c(c1)/C(=C/c1c(-c3ccc(C)cc3)nc3sc(C)cn13)C(=O)N2`: the GI50 in the experiment on COLO 205 colon is 19.8 µM; with DU-145 prostate, 4.75 µM; in the experiment on HOP-92 NSCLC, 10.3 µM; in the experiment on HT29 colon, 8.92 µM; with M14 melanoma, 13.2 µM; with NCI-H460 lung, 6.36 µM. The GI50 with PC-3 prostate was 4.61 µM; in the experiment on UACC-62 melanoma it was 13.1 µM; with UO-31 renal, 10.5 µM. For the same compound, the TGI is > 100 µM in the experiment on COLO 205 colon; > 100 µM in the experiment on DU-145 prostate; 60.5 µM in the experiment on HOP-92 NSCLC; > 100 µM in the experiment with HT29 colon; 59.1 µM in the experiment on M14 melanoma; 56.2 µM in the experiment with NCI-H460 lung. For the same compound, the figures for the TGI in the experiment on PC-3 prostate, with UACC-62 melanoma and in the experiment on UO-31 renal were > 100 µM, 32.5 µM and > 100 µM, respectively.
`Fc1ccc(Nc2ccc3cc(OCCCN4CCOCC4)ccc3n2)cc1F`: the GI50 in the experiment with COLO 205 colon is 1.96 µM; with DU-145 prostate, 6.85 µM; with HOP-92 NSCLC, 2.63 µM; with HT29 colon it was 2.06 µM; in the experiment on NCI-H460 lung, 2.93 µM; with PC-3 prostate, 4.29 µM. Further, the results for the GI50 in the experiment on RPMI-8226 leukemia, with UACC-62 melanoma and in the experiment with UO-31 renal were 6.96 µM, 1.99 µM and 2.24 µM, respectively. For the same compound, the TGI in the experiment with COLO 205 colon was 3.84 µM; in the experiment with DU-145 prostate, > 100 µM; in the experiment on HOP-92 NSCLC it was 7.9 µM; with HT29 colon, 5.47 µM; in the experiment on NCI-H460 lung it was 8.74 µM; in the experiment on PC-3 prostate, 50 µM. Also, the results for the TGI in the experiment with RPMI-8226 leukemia, with UACC-62 melanoma and in the experiment with UO-31 renal were > 100 µM, 4.94 µM and 6.84 µM, respectively.
Take `O=C(Nc1cccc(-c2nc3ccccc3[nH]2)c1)c1cccc(NC(=O)c2ccco2)c1`: the GI50 was 3.49 µM with COLO 205 colon; 1.76 µM in the experiment with DU-145 prostate; 2.63 µM in the experiment on HOP-92 NSCLC; 1.91 µM with HT29 colon; 1.67 µM in the experiment on NCI-H460 lung; 2.25 µM in the experiment on PC-3 prostate. The figures for the GI50 in the experiment on RPMI-8226 leukemia, with UACC-62 melanoma and with UO-31 renal were 2.33 µM, 1.79 µM and 3.24 µM, respectively. The TGI in the experiment with COLO 205 colon turned out to be 10.6 µM; in the experiment with DU-145 prostate, 3.15 µM; with HOP-92 NSCLC it was 5.89 µM; in the experiment on HT29 colon it was 3.4 µM; in the experiment with NCI-H460 lung it was 3.03 µM; in the experiment with PC-3 prostate it was 5.48 µM. In addition, the TGI in the experiment with RPMI-8226 leukemia was determined as 8.16 µM; in the experiment on UACC-62 melanoma, 3.5 µM; in the experiment with UO-31 renal it was 11.8 µM.
For `O=C(CCc1ccc(O)c(O)c1)c1ccc(O)c(O)c1O`, the TGI in the experiment on COLO 205 colon was determined as 34.3 µM; in the experiment with DU-145 prostate, 37.2 µM; in the experiment on HOP-92 NSCLC, 68.4 µM; in the experiment on HT29 colon it was 84 µM; with M14 melanoma, 41.7 µM; with NCI-H460 lung it was 36.2 µM. In addition, the TGI with PC-3 prostate, in the experiment with UACC-62 melanoma and in the experiment with UO-31 renal was > 100 µM each time.
As for `N#C/C(=C\c1ccc(Br)cc1)n1nnc2cc(F)c(F)cc21`, the GI50 with COLO 205 colon is 1.99 µM; with HOP-92 NSCLC, 1.57 µM; in the experiment with HT29 colon it was 1.85 µM; in the experiment with NCI-H460 lung, 1.96 µM; with PC-3 prostate, 1.8 µM; in the experiment with RPMI-8226 leukemia, 2.01 µM. Further, the GI50 with UACC-62 melanoma and in the experiment on UO-31 renal was 1.46 µM in each case. For the same compound, the TGI in the experiment with COLO 205 colon worked out at 4.04 µM; with HOP-92 NSCLC, 4.15 µM; in the experiment with HT29 colon, 3.62 µM; in the experiment with NCI-H460 lung it was 3.98 µM; with PC-3 prostate it was 3.81 µM; with RPMI-8226 leukemia, 4.76 µM. The values for the TGI with UACC-62 melanoma and with UO-31 renal were 3 µM and 2.78 µM, respectively.
For `CCN(CC)CCCC(C)N/C(c1cccc(OC)c1)=c1\c(=O)[nH]n(-c2c3ccccc3nc3ccccc23)c(=O)\c1=C(/NC(C)CCCN(CC)CC)c1cccc(OC)c1` (stereo not given), the GI50 with COLO 205 colon is 1.22 µM; in the experiment on DU-145 prostate it was 1.44 µM; with HT29 colon, 0.591 µM; with M14 melanoma, 2.01 µM; with NCI-H460 lung it was 0.428 µM; in the experiment on PC-3 prostate, 1.2 µM. Further, the GI50 was 2.08 µM with RPMI-8226 leukemia, 1.69 µM in the experiment with UACC-62 melanoma and 1.31 µM with UO-31 renal. Also, the TGI was determined as 2.79 µM in the experiment with COLO 205 colon; 8.86 µM with DU-145 prostate; 2.51 µM in the experiment on HT29 colon; 4.1 µM with M14 melanoma; 2.56 µM in the experiment with NCI-H460 lung; 4.97 µM with PC-3 prostate. For the same compound, the TGI in the experiment on RPMI-8226 leukemia is 5.06 µM; in the experiment on UACC-62 melanoma, 3.3 µM; with UO-31 renal, 3.61 µM.
On to `CCOC(=O)CCc1c(C)c2ccc(O)cc2oc1=O`, for which the TGI in the experiment with COLO 205 colon, in the experiment on DU-145 prostate, in the experiment with HOP-92 NSCLC, with HT29 colon, with M14 melanoma and in the experiment on NCI-H460 lung was > 100 µM in each case. Also, the TGI with PC-3 prostate, with RPMI-8226 leukemia and in the experiment on UACC-62 melanoma was > 100 µM in each case.
As to `CCN(CC)CCCN1C(=O)c2c(c(C)c3c(oc4cc(O)ccc43)c2C)C1=O`, the GI50 was 1.56 µM in the experiment with COLO 205 colon; 1.83 µM in the experiment with DU-145 prostate; 1.48 µM in the experiment on HOP-92 NSCLC; 1.39 µM in the experiment on HT29 colon; 1.8 µM in the experiment with M14 melanoma; 1.82 µM in the experiment with NCI-H460 lung. Further, the GI50 was 1.93 µM with RPMI-8226 leukemia, 1.92 µM in the experiment with UACC-62 melanoma and 1.66 µM in the experiment with UO-31 renal. Moreover, the TGI in the experiment with COLO 205 colon was found to be 3.13 µM; in the experiment on DU-145 prostate, 3.32 µM; in the experiment with HOP-92 NSCLC, 3.02 µM; in the experiment with HT29 colon, 2.85 µM; in the experiment with M14 melanoma, 3.28 µM; in the experiment with NCI-H460 lung, 3.35 µM. Moreover, the figures for the TGI in the experiment on RPMI-8226 leukemia, in the experiment on UACC-62 melanoma and with UO-31 renal were 4.17 µM, 3.44 µM and 3.09 µM, respectively.
`CC(=O)O[C@H]1C(=O)[C@@]2(C)[C@H]([C@H](OC(=O)c3ccccc3)[C@]3(O)C[C@H](OC(=O)[C@H](OC(=O)CCC(=O)OC4CCC(S/N=C(N)/N=C(\N)N(C)C)CC4)[C@@H](NC(=O)c4ccccc4)c4ccccc4)C(C)=C1C3(C)C)[C@]1(OC(C)=O)CO[C@@H]1C[C@@H]2O` (stereo not given in full): the GI50 is 0.00952 µM in the experiment with COLO 205 colon; 0.0135 µM with DU-145 prostate; < 0.005 µM with HT29 colon; 0.0069 µM with NCI-H460 lung; 0.0155 µM in the experiment with PC-3 prostate; 0.00605 µM in the experiment on RPMI-8226 leukemia. In addition, the GI50 with UACC-62 melanoma is < 0.0155 µM; with UO-31 renal, 0.619 µM. In addition, the TGI was 0.0406 µM in the experiment with COLO 205 colon; > 50 µM in the experiment with DU-145 prostate; > 50 µM in the experiment with HT29 colon; > 27.7 µM in the experiment with NCI-H460 lung; > 50 µM in the experiment with PC-3 prostate; > 43.5 µM with RPMI-8226 leukemia. Besides, the TGI in the experiment with UACC-62 melanoma is > 25.5 µM; with UO-31 renal, > 50 µM.
